Paper PMC12311725, “Identification of Ginsentide-like Peptides from Cacao Beans with Oxidative Stress Protection” (ACS Omega, 2025)
Where a SMILES comes first, the peptide text is derived from it. Bridges are numbered along the chain shown (N, C = ends).

How the values were obtained:
HaCaT cells = assay: Tandem-mass-tag (TMT) quantitative proteomic profiling; format: cell-based, human; settings: serum starved overnight, 10 μM tC1 for 24 h, versus untreated
Procedure: Tandem-mass tag quantitative proteomic profiling was performed according to the manufacturer’s instructions . Briefly, HaCaT cells treated with or without cocotide tC1 were harvested and lysed by sonication for 3 min at 25% amplitude with a 2-s-on, 3-s-off pulse time in 8 M urea and 10 mM ammonium bicarbonate supplemented with a protease inhibitor. After centrifugation, quantification of the total proteins was performed by the BCA method. A total of 100 μg of protein from each condition was subjected to in-solution digestion before labeling the resultant peptides using the TMT-10plex Isobaric Label Reagent Set (Thermo Scientific, Rockford, IL, USA) according to the manufacturer’s protocol. […] Eluate was collected in 1 min fractions and strategically pooled via concatenation based on absorbance measurements at a wavelength of 280 nm. […]
The fractionated peptides were separated and analyzed using a Dionex Ultimate 3000 RSLCnano system coupled to a Q Exactive instrument (Thermo Fisher Scientific, MA, USA). […] Peptides were then analyzed on a Q Exactive apparatus with an EASY nanospray source (Thermo Fisher Scientific) at an electrospray potential of 1.8 kV. […] Raw data files were processed, searched, and TMT 10-plex was selected as the quantification method using Peaks Studio 11 with the UniProt human proteome (Proteome ID: UP000005640) as the reference proteome. […]

[1] = Post-translational modification analysis of methionine oxidation (tims-TOF MS/MS); format: physicochemical; settings: native peptide, during extraction and purification
Procedure: The primary sequences of cocotides from Theobroma cacao aqueous extracts were determined by LC-MS/MS sequencing as described previously. The C18-SPE fractionated Theobroma cacao aqueous extracts were redissolved in 20 mM DTT at 37 °C for 1 h followed by S-alkylation with 200 mM iodoacetamide at 37 °C for 1 h. The mixture was desalted with a C18 Zip-tip and subjected to analysis on a trapped ion mobility spectrometer-time-of-flight tandem mass spectrometer (tims-TOF MS/MS). Data analysis was performed using PEAKS Studio (version 11, Bioinformatics Solutions, Waterloo, ON, Canada) with a precursor ion tolerance of 10 ppm and a fragment ion tolerance of 0.05 Da. Carbamidomethylation at Cys was set as a fixed modification. Deamidation of […], oxidation of Met, and acetylation at Lys and N-term were set as variable modification. Peptide sequencing was performed using PEAKS DB protein identification, which integrates database search of an in-house ginsentide-like peptide library derived from Theobroma cacao transcriptome with de novo sequencing.

## CC[C@H](C)[C@@H]1NC(=O)CNC(=O)[C@H](CCSC)NC(=O)[C@@H]2CCCN2C(=O)[C@H](Cc2ccc(O)cc2)NC(=O)[C@H](CC(C)C)NC(=O)[C@@H]2CSSC[C@@H]3NC(=O)[C@H](Cc4ccccc4)NC(=O)CNC(=O)CNC(=O)[C@H](C)NC(=O)[C@H](CO)NC(=O)[C@H](CC(C)C)NC(=O)[C@@H](N)CSSC[C@@H]4NC(=O)[C@H](CSSC[C@H](NC1=O)C(=O)N[C@@H](Cc1ccc(O)cc1)C(=O)NCC(=O)N[C@@H](CO)C(=O)NCC(=O)N[C@H](C(=O)O)CSSC[C@H](NC(=O)[C@H](CC(N)=O)NC(=O)CNC4=O)C(=O)NCC(=O)N2)NC(=O)[C@H](CC(=O)O)NC(=O)[C@H](CCSC)NC(=O)[C@@H]1CCCN1C(=O)[C@H](CC(N)=O)NC(=O)[C@H](Cc1ccccc1)NC(=O)[C@H](CCSC)NC3=O [cocotide tC1] (H-CLSAGGFCMFNPMDCCGNCGCLYPMGICYGSGC-OH; disulfide 1-16, 8-21, 15-28, 19-33; N-terminus and C-terminus assumed)
HaCaT cells
  number of downregulated proteins (minimum 2-fold, significance value >15): 3 proteins
  number of upregulated proteins (minimum 2-fold, significance value >15): 19 proteins
[1]
  Met19 and Met25 oxidized to Met(O): < 5%
  methionine at position 9 converted to Met(O): 27%
